Results from paper PMC12723578 (Archiv Der Pharmazie, 2025).
Values joined by “and” are separate entries in the source; they are usually repeats but may differ in a detail not shown here. Equal entries are not always repeated. Structures can show the parent of a compound that is named as a salt. Where two headings read alike, the source gives them in different places.

Assays:
[1] = target: T1, SARS‐CoV‐2 M^pro (Severe acute respiratory syndrome coronavirus 2, UniProt P0DTD1); test: Screening of M^pro inhibition at 10 and 50 µM (fluorogenic substrate Boc‐Abu‐Tle‐Leu‐Gln‐AMC); assay type: biochemical; settings: for M^pro inhibition (in words): screened at 10 and 50 µM
[2] = target: T1, SARS‐CoV‐2 M^pro; test: Determination of IC50 and K i values; assay type: biochemical; settings: for Ki: calculated from IC50 with the Cheng‐Prusoff equation
[3] = target: T1, SARS‐CoV‐2 M^pro; test: Determination of k inac/K i for irreversible inhibitors; assay type: biochemical; settings: for k inac/K i: second‐order rate constant of enzyme inactivation, reactions monitored for 60 min
[4] = target: T1, SARS‐CoV‐2 M^pro; test: Investigation of inhibition reversibility by jump dilution; assay type: biochemical; settings: 25 min preincubation, 100‐fold jump dilution
[5] = Stability in aqueous media
[6] = In vitro stability in human plasma; assay type: in vitro ADME; settings: plasma diluted to 80% with sodium phosphate buffer, pH 7.4, male human plasma, 37°C, read-out: plasma half‐life t 1/2
Protocol: For the investigation of the in vitro stability of 12 in human plasma, 100 µM of the M^pro inhibitor was incubated with male human plasma at 37°C for five different time periods.
A volume of 30 µL of a 2 mM compound stock solution in DMSO was mixed with 570 µL of a male human plasma solution (Biomol GmbH, Hamburg, Germany) that was diluted to 80% with 0.05 M sodium phosphate buffer, pH 7.4, and prewarmed at 37°C. The final compound concentration was 100 µM, and the DMSO concentration was 5% (v/v). The mixture was divided into aliquots of 100 µL, which were incubated for different time periods and subsequently quenched by the addition of 200 µL of a 0.05 mg/mL reserpine (internal standard) and 2% AcOH (v/v) solution in MeOH. The samples were vortexed for 1 min, stored on ice for 15 min, and subsequently centrifuged at 15,000 rpm and 4°C for 2 min. After filtration through a 0.45 µm polytetrafluoroethylene membrane filter, the resulting solutions were analyzed by HPLC (Jasco Deutschland GmbH, Pfungstadt, Germany). […] The residual proportion was plotted versus incubation time and non‐linear regression according to Y(t) = Y 0 × e^ (‐kt) provided the first‐order rate constant of degradation k, with Y 0 being the compound proportion at t = 0 and Y(t) the residual proportion after a specific incubation time t. Equation t 1/2 = ln2/k afforded the plasma half‐life t 1/2 (n = 2).

[7] = test system: SARS‐CoV‐2; settings: A549‐ACE2 cells; cited from earlier work
[8] = phase I study, single‐dose treatment, fasted conditions, without ritonavir coadministration; cited from earlier work
[9] = test system: SARS‐CoV‐2; test: Cellular antiviral activity, virus plaque assay in A549‐ACE2 cells; assay type: cell-based
[10] = test system: A549‐ACE2 cells; settings: up to 100 µM
[11] = in vitro; settings: human
[12] = read-out: Inhibition @ [I] = 10 µM (%)
[13] = read-out: Inhibition @ [I] = 50 µM (%)
[14] = [I] = 10 µM, product formation determined after 10 min
[15] = [I] = 50 µM, product formation determined after 10 min
[16] = product formation determined after 10 min

Structure (SMILES) | inhibition at 10 µM [1, 12] [%] | inhibition at 50 µM [1, 13] [%] | M^pro inhibition (in words) [1] | M^pro inhibition reversibility [4] | also measured
CCOC(=O)/C=C/C(=O)N(C)NC(=O)[C@H](Cc1ccccc1)NC(=O)OCc1ccccc1 [Compound 5, Ethyl (E)‐4‐{2‐[({benzyloxy}carbonyl)‐L‐phenylalanyl]‐1‐methylhydrazineyl}‐4‐oxobut‐2‐enoate] | 7 | 13 | did not cause protease inhibition |  | 
COC(=O)/C=C/N(C)NC(=O)[C@H](Cc1ccccc1)NC(=O)OCc1ccccc1 [Compound 1, Methyl (E)‐3‐{2‐[({benzyloxy}carbonyl)‐L‐phenylalanyl]‐1‐methylhydrazineyl}acrylate] | 4 | 0 | inactive |  | 
CCOC(=O)N(C)NC(=O)[C@H](Cc1ccccc1)NC(=O)OCc1ccccc1 [Compound 3, Ethyl 2‐{[(N‐benzyloxy)carbonyl]‐L‐phenylalanyl}‐1‐5;methylhydrazine‐1‐carboxylate] | 2 | 3 | did not cause protease inhibition |  | 
CN(NC(=O)[C@H](Cc1ccccc1)NC(=O)OCc1ccccc1)S(=O)(=O)F [Compound 11, Benzyl (S)‐{1‐[2‐(fluorosulfonyl)‐2‐methylhydrazineyl]‐1‐oxo‐3‐phenylpropan‐2‐yl}carbamate] | 40 |  |  | irreversible | IC50 [2]: 14.7 ± 0.7 µM; Ki [2]: 7.24 ± 0.34 µM; k inac/K i [3]: 54.6 ± 25.0 M⁻¹ s⁻¹ and 54.6 M⁻¹ s⁻¹; stability in aqueous media [5]: not sufficiently stable
CCN(CC)CCOC(=O)c1ccc(N)cc1 [Procaine hydrochloride, reference compound] |  |  |  |  | half-life at 100 µM [6]: 0.13 ± 0.0157 h
CN(NC(=O)[C@H](Cc1ccccc1)NC(=O)OCc1ccccc1)C(=O)C(F)(F)Cl [Compound 9, Benzyl (S)‐{1‐[2‐(2‐chloro‐2,2‐difluoroacetyl)‐2‐methylhydrazineyl]‐1‐oxo‐3‐phenylpropan‐2‐yl}carbamate] | 9 | 15 | failed to strongly inhibit |  | 
CN(NC(=O)[C@H](Cc1ccccc1)NC(=O)OCc1ccccc1)C(=O)C(Cl)Cl [Compound 7, Benzyl (S)‐{1‐[2‐(2,2‐dichloroacetyl)‐2‐methylhydrazineyl]‐1‐oxo‐3‐phenylpropan‐2‐yl}carbamate] |  |  |  | reversible | inhibition at 10 µM [1, 14]: 85%; inhibition at 50 µM [1, 15]: 100%; Ki [2]: 1.22 ± 0.09 µM; IC50 [2, 16]: 2.47 ± 0.18 µM
CC(C)(C)[C@H](NC(=O)C(F)(F)F)C(=O)N1C[C@H]2[C@@H]([C@H]1C(=O)N[C@H](C#N)C[C@@H]1CCNC1=O)C2(C)C [nirmatrelvir] |  |  |  |  | EC50 [7]: 0.054 µM; plasma half‐life [8]: 2.03 h
CC(C)(C)[C@H](NC(=O)c1cccs1)C(=O)N[C@@H](Cc1ccccc1)C(=O)NN(Cc1cccc(Cl)c1)C(=O)C(Cl)Cl [Compound 13, N‐{[S]‐1‐[({S}‐1‐{2‐(3‐Chlorobenzyl)‐2‐(2,2‐dichloroacetyl)hydrazineyl}‐1‐oxo‐3‐phenylpropan‐2‐yl)amino]‐3,3‐dimethyl‐1‐oxobutan‐2‐yl}thiophene‐2‐carboxamide] |  | < 50 |  | Reversible | 
CC(C)(C)[C@H](NC(=O)c1cccs1)C(=O)N[C@@H](Cc1ccccc1)C(=O)NN(Cc1cccc(Cl)c1)C(=O)CCl [Compound 12, N‐{[S]‐1‐[({S}‐1‐{2‐(2‐Chloroacetyl)‐2‐(3‐chlorobenzyl)hydrazineyl}‐1‐oxo‐3‐phenylpropan‐2‐yl)amino]‐3,3‐dimethyl‐1‐oxobutan‐2‐yl}thiophene‐2‐carboxamide] |  |  |  | irreversible | inhibition at 50 µM [1, 15]: 100%; Ki [2]: 0.023 ± 0.0017 µM; IC50 [2, 16]: 0.0466 ± 0.0034 µM; improvement of k inac/K i value versus 14 ([3]; 12 compared with 14): 50 fold; k inac/K i [3]: 78,900 M^−1s^−1 and 78,900 ± 12,800 M^−1s^−1 and 100% inhibition @ 50 µM^a Ki = 0.0230 µM^b kinac/Ki = 78,900 M^-1s^-1 c EC50 = 0.47 µM^d M^−1s^−1; EC50 ([9]; Severe acute respiratory syndrome coronavirus 2, A549‐ACE2 cells, MOI 0.1, 24 h postinfection, plaque assay, read-out: EC50): 0.47 µM; half-life at 100 µM [6]: 1.6 ± 0.148 h; cytotoxicity [10]: no cytotoxicity; CC50 at 24 h [11]: > 100 µM
COC(=O)/C=C(\C(=O)OC)N(C)NC(=O)[C@H](Cc1ccccc1)NC(=O)OCc1ccccc1 [Compound 2, Dimethyl 2‐{2‐[({benzyloxy}carbonyl)‐L‐phenylalanyl]‐1‐methylhydrazineyl}maleate] | 1 | 2 | inactive |  | 
CC(C)(C)[C@H](NC(=O)c1cccs1)C(=O)N[C@@H](Cc1ccccc1)C(=O)NN(Cc1cccc(Cl)c1)C(=O)C(F)Cl (mixture of isomers) [Compound 14, N‐{[2S]‐1‐[({2S}‐1‐{2‐(2‐Chloro‐2‐fluoroacetyl)‐2‐(3‐chlorobenzyl)hydrazineyl}‐1‐oxo‐3 phenylpropan‐2‐yl)amino]‐3,3‐dimethyl‐1‐oxobutan‐2‐yl}thiophene‐2‐carboxamide] |  | 69 |  | irreversible | Ki [2]: 4.34 ± 0.6 µM; IC50 [2, 16]: 8.82 ± 1.22 µM
Cn1cnc(Cn2c(=O)[nH]/c(=N\c3cc4cn(C)nc4cc3Cl)n(Cc3cc(F)c(F)cc3F)c2=O)n1 [ensitrelvir, reference compound] |  |  |  |  | EC50 ([9]; Severe acute respiratory syndrome coronavirus 2, A549-ACE2, 24 h): 0.028 µM; CC50 [11]: > 100 µM
COC(=O)CC(=O)N(C)NC(=O)[C@H](Cc1ccccc1)NC(=O)OCc1ccccc1 [Compound 4, Methyl 3‐{2‐[({benzyloxy}carbonyl)‐L‐phenylalanyl]‐1‐6;methylhydrazineyl}‐3‐oxopropanoate] | 0 | 0 | inactive |  | 
CN(NC(=O)[C@H](Cc1ccccc1)NC(=O)OCc1ccccc1)C(=O)C(F)Cl (stereo partly shown) [Compound 8, Benzyl {[2S]‐1‐[2‐(2‐chloro‐2‐fluoroacetyl)‐2‐methylhydrazinyl]‐1‐oxo‐3‐phenylpropan‐2‐yl}carbamate] | 10 | 16 | failed to strongly inhibit |  | 
CN(NC(=O)[C@H](Cc1ccccc1)NC(=O)OCc1ccccc1)C(=O)CCl [Compound 6, Benzyl (S)‐{1‐[2‐(2‐chloroacetyl)‐2‐methylhydrazineyl]‐1‐oxo‐3‐phenylpropan‐2‐yl}carbamate] |  |  |  | irreversible | inhibition at 10 µM [1, 14]: 19%; inhibition at 50 µM [1, 15]: 55%; Ki [2]: 14.8 ± 0.8 µM; IC50 [2, 16]: 30.1 ± 1.7 µM
CN(CC#N)NC(=O)[C@H](Cc1ccccc1)NC(=O)OCc1ccccc1 [Compound 10, Benzyl (S)‐{1‐[2‐(cyanomethyl)‐2‐methylhydrazineyl]‐1‐oxo‐3‐phenylpropan‐2‐yl}carbamate] | 10 | 11 | did not exhibit notable inhibitory properties |  | 
